The record followed here is paper PMC9927457 (Microbiology Spectrum, 2023).

In brackets after ≈: the same amount, converted by molar mass.

By IC50 is commonly meant the concentration that gives 50% inhibition. Low readings indicate higher potency, high ones lower potency. Broadly, the Papp A→B is how fast a substance crosses the layer from the apical side. Low readings indicate poor permeation, high ones ready permeation. The Papp B→A is how fast a substance crosses the layer from the basolateral side. By efflux ratio is commonly meant a quotient of directional permeabilities that is used to spot active efflux.

For one data set, the system named is HepG2 cells. In words: HepG2 cytotoxicity. It is filed as cell-based, human. The conditions noted are these: Homo sapiens, HepG2, 72 h, 3 days exposure, CellTiter-Glo. The method, then: HepG2 cells were used to measure eukaryotic cytotoxicity. Viability of HepG2 was measured using CellTiter-Glo reagent (Promega) after 3 days of exposure to compounds. […] Staurosporine controls (maximum inhibition) and a staurosporine dose response were included on every plate.
(In general: ATP-based viability assays read luminescence as a measure of living cells.)

Data set [1] concerns nonreplicating M. tuberculosis. The data set can be described thus: Kill kinetics, nonreplicating (nutrient starved) bacteria. It is filed as cell-based, Mycobacterium tuberculosis. The conditions noted are these: nutrient starvation, PBS-tyloxapol.
Another data set can be described thus: in vitro. Particulars: human; for Papp A→B at 2 h, 10 µM / Papp B→A at 2 h, 10 µM / efflux ratio at 2 h, 10 µM: Caco-2. A digest of the protocol:
(§1)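 Caco-2 monolayers dosed with 10 μM compound on apical or basolateral side; permeation measured on opposite side for A→B and B→A directions. Sampling at 1 and 2 h; permeability expressed as 10-6 cm s-1 from dQ/dt and initial concentration C0, with recovery.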
(Caco-2 monolayers are a common model of the intestinal barrier.)

In the next data set the test system is Caco-2 cells. In words: Caco-2 permeability. Particulars: for recovery: human, 10 μM. A digest of the protocol:
as §1

The target of data set [2] is SPase activity in M. tuberculosis H37Rv cell membrane fractions (Mycobacterium tuberculosis, UniProt P9WKA1). In words: Inhibition of secretion (SPase activity) in membrane fractions. It is filed as biochemical. The conditions noted are these: fluorogenic peptide substrate 2 μM; 4 h, 37 °C.
Another data set concerns the target CYP3A4 (Homo sapiens, UniProt P08684). The data set can be described thus: Cytochrome P450 inhibition. In kind it is in vitro ADME. The conditions noted are these: liver microsomes. The method, then: Table S4. Inhibition of cytochrome P450s.
Compounds were tested for inhibition of P450s using the enzyme substrate pairs and conditions noted. IC50s (µM) were calculated. Control P450 inhibitors were included for each isoform.
For each compound, the analytical method was developed as follows. Analyte signal was optimized for each compound by ESI positive or negative ionization mode. An MS2 scan or an SIM scan was used to optimize fragmenter voltage and a product ion analysis was used to identify the best fragment for analysis. The collision energy was optimized using a product ion or MRM scan. An ionization ranking was assigned indicating the compound’s ease of ionization. Samples […]
1200 HPLC and a CTC PAL chilled autosampler, all controlled by MassHunter software (Agilent).
After separation on a C18 reverse phase HPLC column (Agilent Zorbax StableBond 3.5µm, 2.1 x 30 mm) using an acetonitrile -water gradient system, peaks were analyzed by mass spectrometry (MS) using ESI ionization in MRM mode.
(1 picture or pasted object on this page, not shown here)
Serial dilutions of a 10 mM stock solution were prepared in acetonitrile:DMSO (9:1). The final DMSO concentration was < 0.2%. Compounds were incubated with human liver microsomes in the presence of 2 mM NADPH in 100 mM potassium phosphate (pH 7.4) containing 5 mM magnesium chloride and a probe substrate, in a 200 µl assay final volume in duplicate. The probe substrate concentrations including bupropion (CYP2B6), amodiaquine (CYP2C8), tolbutamide (CYP2C9), mephenytoin (CYP2C19), dextromethorphan (CYP2D6) and midazolam/testosterone […]
After incubation at 37 °C, reactions were terminated by addition of methanol containing internal standard (propranolol) for analytical quantification. The quenched samples were kept on ice for 10 min and centrifuged at 4 °C for 10 min. The supernatant was removed and the probe substrate metabolite was analyzed by LC-MS/MS (Agilent Technologies Triple Quad LC/MS). A decrease in the formation of the metabolite compared to vehicle control

Data set [3] has as its system M. tuberculosis wild-type strain. The data set can be described thus: MIC against wild-type M. tuberculosis. In kind it is cell-based, Mycobacterium tuberculosis. Particulars: concentration required to inhibit growth by 90%, 5 days culture.
For data set [4], the system named is M. tuberculosis strain under expressing LepB (LepB-UE). In words: microbe, parasite or virus in culture. It is filed as cell-based, Mycobacterium tuberculosis.

Chain of CYP3A4 (P08684 2-503): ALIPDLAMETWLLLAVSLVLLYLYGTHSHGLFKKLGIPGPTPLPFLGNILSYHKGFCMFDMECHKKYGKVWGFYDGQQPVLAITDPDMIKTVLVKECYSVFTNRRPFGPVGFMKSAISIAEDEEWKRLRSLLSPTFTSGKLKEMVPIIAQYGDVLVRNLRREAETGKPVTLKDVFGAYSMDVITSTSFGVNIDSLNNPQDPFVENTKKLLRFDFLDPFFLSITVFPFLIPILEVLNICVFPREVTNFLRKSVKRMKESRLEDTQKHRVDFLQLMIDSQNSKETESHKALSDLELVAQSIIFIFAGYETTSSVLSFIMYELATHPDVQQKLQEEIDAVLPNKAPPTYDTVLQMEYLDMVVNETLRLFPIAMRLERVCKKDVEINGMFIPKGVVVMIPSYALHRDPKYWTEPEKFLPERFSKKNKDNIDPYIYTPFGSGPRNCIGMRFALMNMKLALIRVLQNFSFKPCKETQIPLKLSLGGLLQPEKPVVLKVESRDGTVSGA
Chain of SPase activity in M. tuberculosis H37Rv cell membrane fractions (P9WKA1 whole entry): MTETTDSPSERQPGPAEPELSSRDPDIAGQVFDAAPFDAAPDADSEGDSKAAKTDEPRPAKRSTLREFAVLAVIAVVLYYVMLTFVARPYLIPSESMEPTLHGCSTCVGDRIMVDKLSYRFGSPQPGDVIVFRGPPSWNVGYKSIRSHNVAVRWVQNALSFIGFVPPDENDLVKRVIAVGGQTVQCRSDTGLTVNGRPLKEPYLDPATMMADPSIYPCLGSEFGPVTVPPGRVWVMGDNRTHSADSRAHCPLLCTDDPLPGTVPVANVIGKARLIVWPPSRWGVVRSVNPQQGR

In the case of `CCCCNC(=S)Nc1nc2ccccc2s1` [Molecule 1, 1-(benzo[d]thiazol-2-yl)-3-butylthiourea], the IC50 was 26 ± 12 µM with HepG2 cells and more than 200 µM in data set [2]. For the same compound, the “concentration giving sterilization of nonreplicating organisms” value in data set [1] is 20 µM. In the data set “in vitro”, the Papp A→B at 2 h, 10 µM came to 1.4 ×10⁻⁶ cm/s. For the same compound, the Papp B→A at 2 h, 10 µM in “in vitro” came to 2.5 ×10⁻⁶ cm/s. The efflux ratio at 2 h, 10 µM in “in vitro” turned out to be 1.7. The “dQ/dt (rate of permeation), mean” value in the data set with Caco-2 cells (A→B, assay duration 1 hr) was 9.7E-06; in the data set on Caco-2 cells (A→B, assay duration 2 hr), 2.1E-05; with Caco-2 cells (B→A, assay duration 1 hr), 2.4E-05; in the data set on Caco-2 cells (B→A, assay duration 2 hr), 3.8E-05. Moreover, the IC50 at 10 min is more than 20 µM against CYP3A4 (pH 7.4, probe midazolam) and more than 20 µM against CYP3A4 (pH 7.4, probe testosterone).
Consider `CCCCNC(=S)Nc1nc(C)co1` [Molecule 21, 1-butyl-3-(4-methyloxazol-2-yl)thiourea], for which the MIC in data set [3] (Mycobacterium tuberculosis, 120 h, read-out: MIC Wild type) is 10 µM (≈ 2.13 µg/mL); in data set [4] (Mycobacterium tuberculosis, 120 h), 8 to 9 µM (≈ 1.71 to 1.92 µg/mL). In data set [3], the “MIC Wild type” value came to 10 ± 2.0 µM (≈ 2.13 µg/mL). The “MIC LepB-UE” value in data set [4] amounted to 8.4 ± 3.4 µM (≈ 1.79 µg/mL). This compound registered an IC50 in the data set with HepG2 cells of 42 ± 12 µM. The same compound displayed a Papp A→B at 2 h, 10 µM in “in vitro” of 21 ×10⁻⁶ cm/s. This compound also yielded a Papp B→A at 2 h, 10 µM in the data set “in vitro” of 19 ×10⁻⁶ cm/s. For the same compound, the efflux ratio at 2 h, 10 µM in the data set “in vitro” was 0.89. The compound further returned a recovery at 1 h, 10 μM in the data set “in vitro” (Caco-2, recovery) of 59%. Also, in “in vitro” (Caco-2, recovery), the recovery at 2 h, 10 μM was 56%. Also, the “dQ/dt (rate of permeation), mean” value in the data set on Caco-2 cells (A→B, assay duration 1 hr) is given as 4.2E-04; with Caco-2 cells (A→B, assay duration 2 hr), 3.0E-04; in the data set with Caco-2 cells (B→A, assay duration 1 hr), 3.8E-04; in the data set on Caco-2 cells (B→A, assay duration 2 hr), 2.8E-04. Also, the recovery in the data set on Caco-2 cells (Caco-2, 1 h) is recorded as 77%; in the data set on Caco-2 cells (Caco-2, 2 h) it was 67%. For the same compound, the IC50 at 10 min is more than 20 µM against CYP3A4 (pH 7.4, probe midazolam) and 11.9 µM on CYP3A4 (pH 7.4, probe testosterone).
